Measurements: ChEMBL document CHEMBL5120964, “Novel Antagonist of the Type 2 Lysophosphatidic Acid Receptor (LPA2), UCM-14216, Ameliorates Spinal Cord Injury in Mice” (J Med Chem, 2022)
pIC50: −log10 of the molar value. Calls of active or inactive are those of the source. No cut-off for these calls is given here.

Legend:
[1] = target: T1, Lysophosphatidic acid receptor 2 (Homo sapiens, UniProt Q9HBW0); experiment: Antagonist activity at LPA2 receptor (unknown origin) expressed in cells assessed as blockade of LPA-induced calcium mobilization measured after 120 secs by Fluo-4 NW dye based assay; type: functional, cell-based
T1 sequence (Q9HBW0 whole entry): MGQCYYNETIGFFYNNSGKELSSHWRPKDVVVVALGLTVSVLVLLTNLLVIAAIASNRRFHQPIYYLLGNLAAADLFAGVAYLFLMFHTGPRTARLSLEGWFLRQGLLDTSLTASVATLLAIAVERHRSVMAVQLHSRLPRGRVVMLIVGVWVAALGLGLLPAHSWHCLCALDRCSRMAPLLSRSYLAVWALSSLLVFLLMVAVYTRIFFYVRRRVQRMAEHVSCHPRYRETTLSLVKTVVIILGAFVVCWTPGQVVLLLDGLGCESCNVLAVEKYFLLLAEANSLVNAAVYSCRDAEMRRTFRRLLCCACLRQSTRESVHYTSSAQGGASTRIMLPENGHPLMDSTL

[2] = target: T2, Lysophosphatidic acid receptor 3 (Homo sapiens) (UniProt Q9UBY5); experiment: Antagonist activity at LPA3 receptor (unknown origin) expressed in cells assessed as maximal blockade of LPA-induced calcium mobilization at 10 uM measured after 120 secs by Fluo-4 NW dye based assay relative to control; type: functional, cell-based; conditions: filed as antagonist, time 120.0 sec
T2 sequence (whole entry): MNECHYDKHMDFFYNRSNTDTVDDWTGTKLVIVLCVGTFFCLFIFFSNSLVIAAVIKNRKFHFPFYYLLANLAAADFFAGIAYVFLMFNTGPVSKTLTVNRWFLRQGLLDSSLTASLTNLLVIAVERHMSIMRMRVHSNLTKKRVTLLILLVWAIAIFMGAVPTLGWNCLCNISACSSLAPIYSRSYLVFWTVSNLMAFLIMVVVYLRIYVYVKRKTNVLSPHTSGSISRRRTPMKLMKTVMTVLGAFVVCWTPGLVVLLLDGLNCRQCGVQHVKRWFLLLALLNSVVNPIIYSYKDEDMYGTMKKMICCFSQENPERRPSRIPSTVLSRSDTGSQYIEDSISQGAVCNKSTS

[3] = target: T1, Lysophosphatidic acid receptor 2; experiment: Antagonist activity at LPA2 receptor (unknown origin) expressed in cells assessed as maximal blockade of LPA-induced calcium mobilization at 10 uM measured after 120 secs by Fluo-4 NW dye based assay relative to control; type: functional, cell-based; conditions: filed as antagonist, time 120.0 sec
Mus musculus [4] = experiment: Protection of spinal cord injury-induced locomotor defect in C57B1/6J mouse model assessed as frequent stepping at 25 mg/kg, ip treated 35 days after post injury for 10 consecutive days; type: functional, organism-based; conditions: time 35.0 day
Mus musculus [5] = experiment: Protection of spinal cord injury-induced locomotor defect in C57B1/6J mouse model assessed as increase in locomotor activity at 25 mg/kg, ip treated for 10 consecutive days; type: functional, organism-based
[6] = Plasma concentration in C57B1/6J mouse at 25 mg/kg, ip measured after 0.5 hrs by HPLC-MS analysis
Mus musculus [7] = experiment: Protection of spinal cord injury-induced locomotor defect in C57B1/6J mouse model assessed as increase in motor skills at 25 mg/kg, ip treated 35 days after post injury for 10 consecutive days; type: functional, organism-based; conditions: time 35.0 day
[8] = Metabolic stability in human liver microsomes assessed as half life by HPLC-MS analysis; type: ADME, Microsome

Cc1[nH]nc(-c2ccc(OCc3nnn[nH]3)cc2O)c1Oc1ccc(F)cc1F
pIC50 [1]: 4.51

Cc1noc(-c2ccc(OCC(=O)O)cc2O)c1Oc1ccc(Cl)cc1Cl
Emax [2]: 71%
Emax [3]: 58%

Cc1[nH]nc(-c2ccc(OCc3nnn[nH]3)cc2O)c1Oc1ccc(Cl)cc1Cl
Activity (Mus musculus [4]): Active
Activity (Mus musculus [5]): Active
concentration at 0.5 h [6]: 103000 ng/g
Activity (Mus musculus [7]): Active

Cc1[nH]nc(-c2ccc(OCC(=O)O)cc2O)c1Oc1ccc(Cl)cc1Cl
t1/2 [8]: 1.02 h
